We go through three compounds from PMC6316600, “Analgesic Activity of Acid-Sensing Ion Channel 3 (ASIС3) Inhibitors: Sea Anemones Peptides Ugr9-1 and APETx2 versus Low Molecular Weight Compounds” (Marine Drugs, 2018).

The target of experiment [1] is T1, human ASIC3 (Homo sapiens, UniProt Q9UHC3).
T1 construct: host or cells: Xenopus laevis oocytes (cRNA injection)
T1 sequence (Q9UHC3 1-531): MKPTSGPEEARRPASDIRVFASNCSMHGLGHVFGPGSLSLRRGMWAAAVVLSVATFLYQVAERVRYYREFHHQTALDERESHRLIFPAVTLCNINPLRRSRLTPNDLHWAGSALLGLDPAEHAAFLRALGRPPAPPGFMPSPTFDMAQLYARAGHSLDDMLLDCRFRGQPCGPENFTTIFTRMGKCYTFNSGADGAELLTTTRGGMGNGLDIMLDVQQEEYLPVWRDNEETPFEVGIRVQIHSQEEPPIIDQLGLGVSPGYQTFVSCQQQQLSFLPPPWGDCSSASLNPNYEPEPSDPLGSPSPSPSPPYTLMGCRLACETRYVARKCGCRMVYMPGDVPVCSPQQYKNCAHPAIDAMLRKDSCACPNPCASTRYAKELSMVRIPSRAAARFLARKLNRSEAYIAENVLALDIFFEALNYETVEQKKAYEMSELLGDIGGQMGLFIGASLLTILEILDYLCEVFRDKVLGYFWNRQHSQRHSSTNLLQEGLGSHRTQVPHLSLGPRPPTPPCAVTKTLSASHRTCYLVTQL
In words: Inhibition of sustained hASIC3 current, two-electrode voltage clamp, Xenopus laevis oocytes. To be noted: for Hill coefficient, sustained currents / IC50: hASIC3 in X. laevis oocytes, mean ± SEM (n = 4–6); for IC50: compound applied with 3.5 s pH stimulus, holding -50 mV, logistic fit, read-out: IC50, sustained currents. Type of experiment: cell-based. From the text: (§1) Whole-cell currents were induced by pH drops and recorded at the holding potential −50 mV. (A) Effect of ligands on the transient component of current at conditioning pH 7.8. The control trace is shown first; (B) Effect of ligands on the sustained component at conditioning pH 7.3. The black line is the control trace, and the red line is the trace of activation in the presence of a ligand. Dose-response curves for transient (C) and sustained (D) currents’ inhibitions are shown. Data are shown as mean ± SEM (n = 4–6) and fitted with the logistic equation (solid lines).
The analysis of a sustained component of the current was carried out in a bath solution (pH 7.3) where the transient component of the current was completely desensitized by protons. The pH activation stimulus (3.5 s) was applied in the presence of the testing compound (Figure 1B).
X. laevis oocytes were removed surgically and defolliculated by collagenase (Sigma-Aldrich, Moscow, Russia). Oocytes were injected with 2.5 to 10 ng of human ASIC3 cRNA (AF057711.1). […] To induce transient and/or sustained currents, two different protocols with different conditioning pH were used. Microelectrodes were filled with a 3 M KCl solution. The working buffer solution was ND-96 titrated by NaOH to pH 7.8 or 7.3. The solution for the pH shift was constructed based on the ND-96 solution, in which 5 mM HEPES was replaced with 10 mM acetic acid (pH 4.0) or 10 mM MES (pH 5.5) in a supplementary 0.1% BSA solution. The duration of the activation pulses was 3.5 s.
(§2) The analysis of the electrophysiological data was performed using the OriginPro 8.6 programme.
In general terms: In two-electrode clamp one electrode senses voltage and the other passes current.

Experiment [2] concerns the target T1, human ASIC3. Put plainly: Inhibition of transient hASIC3 current, two-electrode voltage clamp, Xenopus laevis oocytes. Type of experiment: cell-based. The procedure: The activity of ligands was checked on human ASIC3 (hASIC3) channels expressed in Xenopus laevis oocytes. […] Two different protocols were used to reveal the effects of ligands on sustained and transient components of acid-induced hASIC3 currents. The influence of the compounds on the transient current amplitude was estimated after preincubation for 15 s before the activation in a low alkali bath solution (pH 7.8), which ensured an absence of steady-state desensitization for the transient current (Figure 1A). The compounds’ inhibition effectiveness was calculated using the value of maximal amplitudes. […] The inhibitory effect was concentration-dependent and fit well using a logistic equation.
as §1, with “Figure 1 Comparison of ligands’ antagonistic effects on hASIC3 channels. Whole-cell” for “Whole-cell”
X. laevis oocytes were removed surgically and defolliculated by collagenase (Sigma-Aldrich, Moscow, Russia). Oocytes were injected with 2.5 to 10 ng of human ASIC3 cRNA (AF057711.1). The cRNA transcripts were synthesised from a NaeI-linearized ASIC3 cDNA template (pcDNA3.1+humanASIC3 subcloned from clone EX-Q0260- B02 (GeneCopoeia, Inc., Rockville, MD USA) using a HiScribe T7 High Yield RNA Synthesis Kit (New England Biolabs, Ipswich, MA, USA) according to the manufacturer’s protocol for capped transcripts. After the injection, oocytes were kept for 3 to 6 days at 19° in a ND-96 medium containing (in mM) 96 NaCl, 2 KCl, 1.8 CaCl2, 1 MgCl2, and 5 HEPES titrated to pH 7.4 with NaOH supplemented with gentamycin (50 µg/mL). Two-electrode voltage clamp recordings were performed using a GeneClamp 500 amplifier (Axon Instruments, Union City, CA, USA), and the data were filtered at 20 Hz and digitized at 100 Hz by an AD converter L780 (LCard, Moscow, Russia) using in-house software. To induce transient and/or sustained currents, two different protocols with different conditioning pH were used. Microelectrodes were filled with a 3 M KCl solution. The working buffer solution was ND-96 titrated by NaOH to pH 7.8 or 7.3. The solution for the pH shift was constructed based on the ND-96 solution, in which 5 mM HEPES was replaced with 10 mM acetic acid (pH 4.0) or 10 mM MES (pH 5.5) in a supplementary 0.1% BSA solution. The duration of the activation pulses was 3.5 s.
as §2

The mark [3] stands for this setting: hASIC3 in X. laevis oocytes, conditioning pH 7.8, mean ± SEM (n = 4–6).

The structures appear in SMILES notation. Entries after “also recorded” stand apart in the source; their conditions may differ. Bridge positions count the residues as written; N and C are the ends. Peptide text beside a SMILES is read from it.

The term IC50 denotes the concentration needed to halve the response being measured.

On to `CC[C@H](C)[C@H](N)C(=O)N[C@@H](CO)C(=O)N[C@H](C(=O)N[C@@H](CC(=O)O)C(=O)N1CCC[C@H]1C(=O)N1CCC[C@H]1C(=O)N[C@H]1CSSC[C@@H](C(=O)NCC(=O)N[C@@H](C)C(=O)N[C@H](C(=O)O)C(C)C)NC(=O)CNC(=O)[C@H](Cc2ccc(O)cc2)NC(=O)[C@H](C)NC(=O)[C@H](CC(=O)O)NC(=O)[C@H](Cc2ccc(O)cc2)NC(=O)[C@H](C(C)C)NC(=O)[C@@H]2CSSC[C@H](NC(=O)[C@H](Cc3ccccc3)NC(=O)[C@H](CCCNC(=N)N)NC1=O)C(=O)N[C@@H](Cc1ccc(O)cc1)C(=O)N[C@@H](Cc1c[nH]cn1)C(=O)N[C@@H](CCCNC(=N)N)C(=O)N[C@@H](CC(=O)O)C(=O)NCC(=O)N[C@@H](CO)C(=O)NCC(=O)N[C@@H](CC(N)=O)C(=O)N2)[C@@H](C)CC` [Ugr9-1] (H-ISIDPPCRFCYHRDGSGNCVYDAYGCGAV-OH; disulfide 7-26, 10-19; N-terminus and C-terminus assumed), for which the “Rank of potency, sustained component inhibition” value on human ASIC3 [1] was “Ugr9-1 > sevanol > diclofenac”. On human ASIC3 [1] (conditioning pH 7.3), the “Inhibition of sustained current (in words)” value is “decreased transient and sustained components of the current”; the “Hill coefficient, sustained currents” value turned out to be 1.74 ± 0.51. For the same compound, at human ASIC3 [1] (pH 7.3, read-out: Inhibition of sustained current amplitude at saturation concentration), the inhibition at 50 µM was approximately 50%. The “Rank of in vitro potency, transient component of hASIC3 current” value at human ASIC3 [2] is listed as “APETx2 > Ugr9-1 > sevanol”. At human ASIC3 [2] (Ugr9-1 versus APETx2), the “Concentration needed to block transient current relative to APETx2” value stood at 30 times and the “Lower efficacy in inhibition of the transient component relative to APETx2” value is given as 30 times. Also, the “Inhibition of transient current (in words)” value on human ASIC3 [2] (conditioning pH 7.8) is “completely blocked the transient current of ASIC3; also recorded: decreased transient and sustained components of the current”. In addition, at human ASIC3 [2] (setting [3]), the “Hill coefficient, transient currents” value was determined as 1.86 ± 0.16.

As to `O=C(O)Cc1ccccc1Nc1c(Cl)cccc1Cl` [diclofenac, reference compound], the “Rank of potency, sustained component inhibition” value at human ASIC3 [1] is given as “Ugr9-1 > sevanol > diclofenac”. The inhibition at 3000 µM on human ASIC3 [1] (about 3 mM, conditioning pH 7.3, read-out: Inhibition of sustained current amplitude at saturation concentration) is approximately 50%. Further, at human ASIC3 [1] (conditioning pH 7.3), the “Inhibition of sustained current (in words)” value is recorded as “significantly weaker in their inhibitory potency when compared to peptide toxin Ugr9-1” and the IC50 was 856 ± 106 µM. The “Inhibition of transient current (in words)” value on human ASIC3 [2] (conditioning pH 7.8) is “not detected”.

In the case of `O=C(O)C[C@H](C(=O)O)[C@@H](OC(=O)C1=Cc2cc(O)c(O)cc2[C@@H](c2ccc(O)c(O)c2)[C@@H]1C(=O)O[C@@H](C(=O)O)[C@H](CC(=O)O)C(=O)O)C(=O)O` [sevanol], the “Rank of potency, sustained component inhibition” value at human ASIC3 [1] was “Ugr9-1 > sevanol > diclofenac”. For the same compound, at human ASIC3 [1] (about 3 mM, conditioning pH 7.3), the “Inhibition of sustained current amplitude at saturation concentration” value was “approximately 50%”. For the same compound, on human ASIC3 [1] (conditioning pH 7.3), the “Inhibition of sustained current (in words)” value was “decreased transient and sustained components of the current”; the IC50 turned out to be 259 ± 39 µM; the “Hill coefficient, sustained currents” value stood at 2.4 ± 0.4. Besides, the “Inhibition of sustained current (in words)” value at human ASIC3 [1] (conditioning pH 7.3, listed as Sevanol) was “significantly weaker in their inhibitory potency when compared to peptide toxin Ugr9-1”. Besides, the “Rank of in vitro potency, transient component of hASIC3 current” value on human ASIC3 [2] was “APETx2 > Ugr9-1 > sevanol”. Moreover, the “Inhibition of transient current (in words)” value at human ASIC3 [2] (conditioning pH 7.8) is “had much less potency and inhibited transient currents in submillimolar concentrations; also recorded: complete inhibition was observed; also recorded: decreased transient and sustained components of the current”. Besides, the IC50 at human ASIC3 [2] (hASIC3 in X. laevis oocytes, conditioning pH 7.8, 15 s preincubation, holding -50 mV, logistic fit, mean ± SEM (n = 4–6), read-out: IC50, transient currents) is 331 ± 21 µM. Moreover, the “Hill coefficient, transient currents” value on human ASIC3 [2] (setting [3]) stood at 1.98 ± 0.24. Further, the “Lower efficacy in vitro relative to APETx2” value on human ASIC3 [2] (sevanol versus APETx2) turned out to be 1000 fold. Besides, the “Lower efficacy in vitro relative to Ugr9-1” value at human ASIC3 [2] (sevanol versus Ugr9-1) was 35 fold.
